Patent US5378803A, “Azole-fused peptides and processes for preparation thereof” (Sterling Winthrop Inc., priority 1992, dated 1995)
Residues, ends and D or L forms follow the SMILES beside them.

Target: T1, Substance P (Cavia porcellus, UniProt P30547)
T1 construct: Strips of longitudinal muscle (derived from terminal ileum of adult male guinea pigs); from tissue; host or cells: longitudinal muscle strips of terminal ileum, adult male guinea pigs (Charles River)
Assay: Guinea pig ileum test for Substance P antagonist effect
Format: cell-based
Settings: isolated guinea pig ileum longitudinal muscle strips; Schild plot analysis; 5-10 min contact time; footnote a = limited data due to solubility, b = slope significantly different from -1; read-out: Substance P Antagonist pA2 (converted)
Experimental: As stated above the azole-fused peptides of Formula I are useful as Substance P antagonists and analgesics or as synthetic intermediates therefor.
Strips of longitudinal muscle (derived from terminal ileum of adult male guinea pigs (Charles River, 400-600 g.) are mounted in 5-ml. organ baths containing oxygenated Krebs solution containing l μM each of atropine and pyrilamine maintained at 30°-33° C. and connected to isometric transducers. Following tissue equilibration and repeated washing (45-60 min.), SP or an appropriate reference agonist is added cumulatively to the bath and contractions of the tissue are recorded. The bath is washed thoroughly and 30-45 min. is allowed to elapse before construction of a second reference agonist curve to assure reproducibility of the responses. Test compounds are similarly evaluated for agonist activity up to a maximum concentration of 10-100 μM. Regression analysis of the linear portion of the log concentration-percent maximal response curves provides the EC50 (and 95% confidence limits), the standard measure of agonist potency. When appropriate, relative molar potency ratios are calculated (EC50 reference/ED50 test drug). Antagonist activity is examined by pretreating thoroughly washed tissues with test compound (using a standard 5-10 min. contact time), then constructing a cumulative dose-response curve to the reference agonist. The effects of several concentrations of test antagonist, pooled across separate experiments, provide dose-ratio (EC50 shift) data for a standard Schild plot analysis, with computation of the pA2.

T1 sequence (P30547 whole entry): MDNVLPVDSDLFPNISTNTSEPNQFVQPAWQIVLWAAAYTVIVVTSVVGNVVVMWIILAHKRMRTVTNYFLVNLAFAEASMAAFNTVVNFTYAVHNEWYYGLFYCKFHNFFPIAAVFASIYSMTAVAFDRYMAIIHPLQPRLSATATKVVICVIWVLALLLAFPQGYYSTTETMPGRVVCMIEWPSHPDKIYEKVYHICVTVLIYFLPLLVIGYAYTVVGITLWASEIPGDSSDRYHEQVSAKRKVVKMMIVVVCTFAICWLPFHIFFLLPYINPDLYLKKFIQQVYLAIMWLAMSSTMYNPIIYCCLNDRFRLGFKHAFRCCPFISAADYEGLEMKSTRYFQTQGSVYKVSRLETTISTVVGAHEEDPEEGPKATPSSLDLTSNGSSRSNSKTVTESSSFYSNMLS

| Structure (SMILES) | Kb [nM] |
| --- | --- |
| CC(C)C[C@H](NC(=O)[C@@H](Cc1c[nH]c2ccccc12)NC(=O)c1nc(C2Cc3c([nH]c4ccccc34)CN2)sc1-c1ccccc1)C(=O)N[C@@H](Cc1ccccc1)C(N)=O (single isomer, unassigned) [Example 7] | > 10000 |
| CC(C)C[C@H](NC(=O)[C@@H](Cc1c[nH]c2ccccc12)NC(=O)c1nc(C2Cc3c([nH]c4ccccc34)CN2)sc1-c1ccccc1)C(=O)N[C@@H](Cc1ccccc1)C(N)=O (single isomer, unassigned) [Example 8] | 7940 |
| CN(C)CCNC(=O)[C@@H](Cc1c[nH]c2ccccc12)NC(=O)c1nc(C(Cc2c[nH]c3ccccc23)NC(=O)[C@@H]2CCCN2)sc1-c1ccccc1 (single isomer, unassigned) [Example 11] | 7940 |
| CN(C)CCNC(=O)[C@@H](Cc1c[nH]c2ccccc12)NC(=O)c1nc(C(Cc2c[nH]c3ccccc23)NC(=O)[C@@H]2CCCN2)sc1-c1ccccc1 (single isomer, unassigned) [Example 12] | 5010 |
| CC(C)C[C@H](NC(=O)[C@@H](Cc1c[nH]c2ccccc12)NC(=O)c1nc([C@H](Cc2c[nH]c3ccccc23)NC(=O)[C@@H]2CCCN2)sc1-c1ccccc1)C(=O)N[C@@H](Cc1ccccc1)C(N)=O [Example 2] | 126 |
| CC(C)C[C@H](NC(=O)[C@@H](Cc1c[nH]c2ccccc12)NC(=O)c1nc([C@@H](Cc2c[nH]c3ccccc23)NC(=O)[C@@H]2CCCN2)sc1-c1ccccc1)C(=O)N[C@@H](Cc1ccccc1)C(N)=O [Example 3] | 50.1 |
| CC(C)c1sc([C@@H](Cc2c[nH]c3ccccc23)NC(=O)[C@H](Cc2ccccc2)NC(=O)[C@@H](Cc2c[nH]c3ccccc23)NC(=O)[C@@H]2CCCN2)nc1C(=O)N[C@@H](Cc1ccccc1)C(N)=O [Example 4] (HELM PEPTIDE1{P.[dW].F.[CC(C)c1sc([C@@H](Cc2c[nH]c3ccccc23)N[*:1])nc1C(=O)[*:2]].F.[am]}$$$$V2.0) | 501 |
| CC(C)c1sc([C@H](Cc2c[nH]c3ccccc23)NC(=O)[C@H](Cc2ccccc2)NC(=O)[C@@H](Cc2c[nH]c3ccccc23)NC(=O)[C@@H]2CCCN2)nc1C(=O)N[C@@H](Cc1ccccc1)C(N)=O [Example 5] (HELM PEPTIDE1{P.[dW].F.[CC(C)c1sc([C@H](Cc2c[nH]c3ccccc23)N[*:1])nc1C(=O)[*:2]].F.[am]}$$$$V2.0) | 126 |
| CC(C)C[C@H](NC(=O)c1nc([C@H](Cc2ccccc2)NC(=O)[C@@H](Cc2c[nH]c3ccccc23)NC(=O)[C@@H]2CCCN2)sc1-c1c[nH]c2ccccc12)C(=O)N[C@@H](Cc1ccccc1)C(N)=O [Example 6] | 1260 |
| CC(C)C[C@H](NC(=O)c1nc([C@H](Cc2ccccc2)NC(=O)[C@@H](Cc2c[nH]c3ccccc23)NC(=O)[C@@H]2CCCN2)oc1-c1c[nH]c2ccccc12)C(=O)N[C@@H](Cc1ccccc1)C(N)=O [Example 9] | 5010 |
| CC(C)C[C@H](NC(=O)c1nc([C@H](Cc2ccccc2)NC(=O)[C@@H](Cc2c[nH]c3ccccc23)NC(=O)[C@@H]2CCCN2)[nH]c1-c1c[nH]c2ccccc12)C(=O)N[C@@H](Cc1ccccc1)C(N)=O [Example 10] | 1260 |
| CC(C)C[C@H](NC(=O)[C@@H](Cc1c[nH]c2ccccc12)NC(=O)c1nc([C@@H](Cc2c[nH]c3ccccc23)NC(=O)[C@@H]2CCCN2)[nH]c1-c1ccccc1)C(=O)N[C@@H](Cc1ccccc1)C(N)=O [Example 16] | 200 |
| CC(C)C[C@H](NC(=O)[C@@H](Cc1c[nH]c2ccccc12)NC(=O)[C@H](Cc1ccccc1)NC(=O)[C@@H](Cc1c[nH]c2ccccc12)NC(=O)[C@@H]1CCCN1)c1ncc(-c2ccccc2)[nH]1 [Example 17] (HELM PEPTIDE1{P.[dW].F.[dW].[CC(C)C[C@H](N[*:1])c1ncc(-c2ccccc2)[nH]1]}$$$$V2.0) | 501 |
| CC(C)C[C@H](NC(=O)[C@@H](Cc1c[nH]c2ccccc12)NC(=O)c1nc([C@@H](Cc2c[nH]c3ccccc23)NC(=O)[C@@H]2CCCN2)sc1-c1ccccc1)C(=O)N[C@@H](Cc1ccccc1)C(=O)O [Example 18] | 316 |
| CC(C)C[C@H](NC(=O)[C@@H](Cc1c[nH]c2ccccc12)NC(=O)c1nc([C@@H](Cc2c[nH]c3ccccc23)NC(=O)[C@@H]2CCCN2)sc1-c1ccccc1)C(=O)O [Example 19] | > 10000 |
| CC(C)C[C@H](NC(=O)[C@@H](Cc1c[nH]c2ccccc12)NC(=O)c1nc([C@H](N)Cc2c[nH]c3ccccc23)sc1-c1ccccc1)C(=O)O [Example 20] | > 10000 |
| CC(C)c1sc([C@@H](Cc2c[nH]c3ccccc23)NC(=O)c2nc([C@@H](Cc3c[nH]c4ccccc34)NC(=O)[C@@H]3CCCN3)sc2-c2ccccc2)nc1C(=O)NC[C@@H](N)Cc1ccccc1 [Example 21] | > 10000 |
| CC(C)C[C@H](NC(=O)[C@@H](Cc1c[nH]c2ccccc12)NC(=O)c1nc([C@@H](Cc2c[nH]c3ccccc23)NC(=O)[C@@H]2CCCN2)sc1-c1ccccc1)C(=O)N(C)C(Cc1ccccc1)C(N)=O (stereo partly drawn) [Example 22] | 79.4 |
| CC(C)C[C@H](NC(=O)[C@@H](Cc1c[nH]c2ccccc12)NC(=O)c1nc([C@@H](Cc2c[nH]c3ccccc23)NC(=O)[C@@H]2CCCN2)oc1-c1ccccc1)C(=O)N[C@@H](Cc1ccccc1)C(N)=O [Example 24] | 631 |
| CC(C)c1sc([C@@H](Cc2c[nH]c3ccccc23)NC(=O)[C@H](Cc2ccccc2)NC(=O)[C@@H](Cc2c[nH]c3ccccc23)NC(=O)[C@@H]2CCCN2)nc1C(=O)NC[C@@H](N)Cc1ccccc1 [Example 25] | 794 |
| CC(C)c1sc([C@@H](Cc2c[nH]c3ccccc23)NC(=O)[C@H](Cc2ccccc2)NC(=O)[C@@H](Cc2c[nH]c3ccccc23)NC(=O)[C@@H]2CCCN2)nc1CN(C)CCc1ccccc1 [Example 27] | ≥ 10000 |
